Experimental data reported in patent US20080300263A1, “Pyrazolo [1,5-a] pyrimidine compounds and pharmaceutical compositions containing them” (EiRx Therapeutics plc, priority 2005, published 2008).

System: C9M-TF1 cells
Assay: EC50 titration, Alamar Blue, suspension cells
Assay type: cell-based
Details: Homo sapiens, 72 h
Procedure: (§1) On the day of the assay compounds are used to prepare dilution series on Titration Plates which are plated at ten times their final screening concentration in 10 μl aliquots.
(§2) Suspension cells are split 24 hours prior to drug treatment in order to bring the cultures into the log phase of growth. On the day of the assay the cells are plated directly into the Titration Plates at the appropriate pre-determined seeding density (Table 1) in 90 μl volumes thus reducing the concentration of the compounds to their final test concentration. The plates are incubated for 72 hours at 37° C. and 5% CO2 after which time they are assayed by Alamar Blue.
(§3) The EC50 values are calculated using the values obtained from the Alamar Blue readout which are converted into a “Percentage of the Untreated Control” and using Graph Pad Prism these values are plotted against the logarithm of the test concentration. Using a non-linear regression analysis a sigmoidal dose-response curve is generated from which the EC50 is determined.

Structure (SMILES)	EC50 [µM]
c1ccc(CNc2ccnc3c(-c4cccc5cccnc45)cnn23)nc1 [Compound 8]	17.8

System: FRAT2 overexpresing TF1 (FRAT2-C9M-TF1 cells)
Assay: Primary high-throughput screen, Alamar Blue, suspension cells
Assay type: cell-based
Details: Homo sapiens; compound at 10 μM, 72 h; minus GMCSF; read-out: percentage kill, FRAT2−
Procedure: (§4) Daughter Plates containing 10 μl of a […] solution of test compound selected from among the candidate compounds stored at […] are thawed at room temperature. A 10 μL volume of 0.1% DMSO in PBS is added to all wells of Column 12 and the wells in Row A-F of Column 1. A 10 μl volume of a pre-determined concentration of the P13-Kinase inhibitor LY294002 is added to wells in Row G and H of Column 1. A 90 μl volume of the appropriate cell culture medium is then added to each well and mixed by repeated aspiration/dispensing. The compounds are at a final test concentration of 10 μM.
(§5) Once the Daughter Plates have been prepared the media is removed from all wells of the cell culture plate using an 8-Channel Vacuum Aspirator. The contents of the Daughter Plates are then transferred to the appropriate wells of their relevant Test Plates and the Test Plates are incubated for 72 h at 37° C. and 5% CO2. At the end of this period Test Plates are assayed by Alamar Blue. A 10 μl volume of Alamar Blue is added to all wells of the Test Plate. The Test Plates are incubated for […] at 37° C. and 5% CO2 and finally read using the BioTek SYNERGY plate reader (Excitation 530125 nm-Emission 590135 nm). Percentage inhibition is determined using Microsoft Excel spreadsheet calculations.
(§6) Suspension cells are split 24 hours prior to drug treatment in order to bring the cultures into the log phase of growth. On the day of the assay the cells are plated directly into the Daughter Plates at the appropriate pre-determined seeding density (Table 1) in 90 μl volumes, the concentration of the test compounds thus being reduced to 10 μM. Cells are plated in all wells apart from those in Column 12 which contain 901 normal culture medium alone. The plates are incubated for 72 h at 37° C. and 5% CO2 after which time they are assayed by Alamar Blue as per the preceding example.
(§7) The figures appearing in the columns are the percentage kill achieved by that compound at 10 μM.

Structure (SMILES)	inhibition at 10 µM [%]
c1ccc(CNc2ccnc3c(-c4cccc5cccnc45)cnn23)nc1 [Compound 8]	68
Fc1ccc(-c2cnn3c(NCc4ccccn4)ccnc23)cc1Cl [Compound 11]	71
ClCc1ccccc1-c1cnn2c(NCc3cccs3)ccnc12 [Compound 12]	52
c1ccc(CNc2ccnc3c(-c4ccc(N5CCOCC5)cc4)cnn23)nc1 [Compound 13]	61
Clc1cccc(Nc2ccn3ncc(-c4ccncc4)c3n2)c1 [Compound 14]	50

Same assay, conditions: Homo sapiens; compound at 10 μM, 72 h; plus GMCSF; read-out: percentage kill, FRAT2+

Structure (SMILES)	inhibition at 10 µM [%]
c1ccc(CNc2ccnc3c(-c4cccc5cccnc45)cnn23)nc1 [Compound 8]	39
Fc1ccc(-c2cnn3c(NCc4ccccn4)ccnc23)cc1Cl [Compound 11]	35
ClCc1ccccc1-c1cnn2c(NCc3cccs3)ccnc12 [Compound 12]	19
c1ccc(CNc2ccnc3c(-c4ccc(N5CCOCC5)cc4)cnn23)nc1 [Compound 13]	38
Clc1cccc(Nc2ccn3ncc(-c4ccncc4)c3n2)c1 [Compound 14]	38

System: C9M-TF1 cells
Assay: as above
Assay type: cell-based
Details: Homo sapiens, 72 h, compound at 10 μM, first C9M column, read-out: percentage kill, C9M
Procedure: as §4, §5, §6, §7

Structure (SMILES)	inhibition at 10 µM [%]
c1ccc(CNc2ccnc3c(-c4cccc5cccnc45)cnn23)nc1 [Compound 8]	7
Fc1ccc(-c2cnn3c(NCc4ccccn4)ccnc23)cc1Cl [Compound 11]	1
ClCc1ccccc1-c1cnn2c(NCc3cccs3)ccnc12 [Compound 12]	0
c1ccc(CNc2ccnc3c(-c4ccc(N5CCOCC5)cc4)cnn23)nc1 [Compound 13]	-1
Clc1cccc(Nc2ccn3ncc(-c4ccncc4)c3n2)c1 [Compound 14]	45

Same assay, conditions: Homo sapiens, 72 h, compound at 10 μM, second C9M column, read-out: percentage kill, C9M

Structure (SMILES)	inhibition at 10 µM [%]
c1ccc(CNc2ccnc3c(-c4cccc5cccnc45)cnn23)nc1 [Compound 8]	-4
Fc1ccc(-c2cnn3c(NCc4ccccn4)ccnc23)cc1Cl [Compound 11]	-6
ClCc1ccccc1-c1cnn2c(NCc3cccs3)ccnc12 [Compound 12]	0
c1ccc(CNc2ccnc3c(-c4ccc(N5CCOCC5)cc4)cnn23)nc1 [Compound 13]	-1
Clc1cccc(Nc2ccn3ncc(-c4ccncc4)c3n2)c1 [Compound 14]	27

System: colon cancer cell line HT29
Assay: EC50 titration, Alamar Blue, adherent cells
Assay type: cell-based
Details: Homo sapiens, HT-29, 72 h
Procedure: as §1
(§8) For adherent cell lines plated 24 hours previously, a 90 μl volume of the appropriate cell culture medium is then added to each well of the Titration Plates and mixed by repeated aspiration/dispensing, thus taking the compounds to their final test concentration. Once the Titration Plates have been prepared the media is removed from all wells of the cell culture plate and the contents of the Titration Plates are then transferred to the appropriate wells of their relevant Test Plates and incubated for 72 h at 37° C. and 5% CO2 after which time they are assayed by Alamar Blue. Using a combination of Microsoft Excel and Graph Pad Prism, EC50s are determined.
as §3

EC50 [µM]	Structure (SMILES)
1.51	c1ccc(CNc2ccnc3c(-c4cccc5cccnc45)cnn23)nc1 [Compound 8]

System: breast cancer cell line MCF7
Assay: EC50 titration, Alamar Blue, adherent cells
Assay type: cell-based
Details: Homo sapiens, 72 h
Procedure: as §1, §8, §3

EC50 [µM]	Structure (SMILES)
1.78	c1ccc(CNc2ccnc3c(-c4cccc5cccnc45)cnn23)nc1 [Compound 8]

System: non-transformed breast cell line MCF10A
Assay: EC50 titration, Alamar Blue, adherent cells
Assay type: cell-based
Details: Homo sapiens, MCF-10A, 72 h
Procedure: as §1, §8, §3

Structure (SMILES)	EC50 [µM]
c1ccc(CNc2ccnc3c(-c4cccc5cccnc45)cnn23)nc1 [Compound 8]	6.17

System: CACO2 Colon adenocarcinoma
Assay: Primary high-throughput screen, Alamar Blue, adherent cells
Assay type: cell-based
Details: Homo sapiens, Caco-2; compound at 10 μM, 72 h; read-out: percentage kill, CAC02
Procedure: (§9) Adherent cells are plated at a pre-determined seeding density (Table 1) in flat-bottom 96 well plates 24 hours prior to drug treatment. The cell lines are plated in 100 μl volumes in each well. Cells are plated in all wells apart from those in Column 12 which contain 100 μL normal culture medium alone. These plates will be known as the Test Plates. The Test Plates are labelled with a Daughter Plate ID.
as §4, §5, §7

Structure (SMILES)	inhibition at 10 µM [%]
c1ccc(CNc2ccnc3c(-c4cccc5cccnc45)cnn23)nc1 [Compound 8]	71
Fc1ccc(-c2cnn3c(NCc4ccccn4)ccnc23)cc1Cl [Compound 11]	61
ClCc1ccccc1-c1cnn2c(NCc3cccs3)ccnc12 [Compound 12]	17
c1ccc(CNc2ccnc3c(-c4ccc(N5CCOCC5)cc4)cnn23)nc1 [Compound 13]	27
Clc1cccc(Nc2ccn3ncc(-c4ccncc4)c3n2)c1 [Compound 14]	46

System: U1810 Non Small Cell Lung Carcinoma
Assay: as above
Assay type: cell-based
Details: U-1810; compound at 10 μM, 72 h; read-out: percentage kill, U1810
Procedure: as §9, §4, §5, §7

Structure (SMILES)	inhibition at 10 µM [%]
c1ccc(CNc2ccnc3c(-c4cccc5cccnc45)cnn23)nc1 [Compound 8]	68
Fc1ccc(-c2cnn3c(NCc4ccccn4)ccnc23)cc1Cl [Compound 11]	13
ClCc1ccccc1-c1cnn2c(NCc3cccs3)ccnc12 [Compound 12]	18
c1ccc(CNc2ccnc3c(-c4ccc(N5CCOCC5)cc4)cnn23)nc1 [Compound 13]	13
Clc1cccc(Nc2ccn3ncc(-c4ccncc4)c3n2)c1 [Compound 14]	2

System: A549 Non Small Cell Lung Carcinoma
Assay: as above
Assay type: cell-based
Details: Homo sapiens, compound at 10 μM, 72 h, read-out: percentage kill, A549
Procedure: as §9, §4, §5, §7

Structure (SMILES)	inhibition at 10 µM [%]
c1ccc(CNc2ccnc3c(-c4cccc5cccnc45)cnn23)nc1 [Compound 8]	-3
Fc1ccc(-c2cnn3c(NCc4ccccn4)ccnc23)cc1Cl [Compound 11]	5
ClCc1ccccc1-c1cnn2c(NCc3cccs3)ccnc12 [Compound 12]	4
c1ccc(CNc2ccnc3c(-c4ccc(N5CCOCC5)cc4)cnn23)nc1 [Compound 13]	18
Clc1cccc(Nc2ccn3ncc(-c4ccncc4)c3n2)c1 [Compound 14]	26

System: PC3 Prostate carcinoma (bone metastasis)
Assay: as above
Assay type: cell-based
Details: compound at 10 μM, 72 h; read-out: percentage kill, PC3
Procedure: as §9, §4, §5, §7

Structure (SMILES)	inhibition at 10 µM [%]
c1ccc(CNc2ccnc3c(-c4cccc5cccnc45)cnn23)nc1 [Compound 8]	56
Fc1ccc(-c2cnn3c(NCc4ccccn4)ccnc23)cc1Cl [Compound 11]	-85
ClCc1ccccc1-c1cnn2c(NCc3cccs3)ccnc12 [Compound 12]	-45
c1ccc(CNc2ccnc3c(-c4ccc(N5CCOCC5)cc4)cnn23)nc1 [Compound 13]	-37
Clc1cccc(Nc2ccn3ncc(-c4ccncc4)c3n2)c1 [Compound 14]	-4

System: LS123 Colon adenocarcinoma (Dukes' type B)
Assay: as above
Assay type: cell-based
Details: Homo sapiens, LS-123; compound at 10 μM, 72 h; read-out: percentage kill, LS123
Procedure: as §9, §4, §5, §7

Structure (SMILES)	inhibition at 10 µM [%]
c1ccc(CNc2ccnc3c(-c4cccc5cccnc45)cnn23)nc1 [Compound 8]	92
Fc1ccc(-c2cnn3c(NCc4ccccn4)ccnc23)cc1Cl [Compound 11]	22
ClCc1ccccc1-c1cnn2c(NCc3cccs3)ccnc12 [Compound 12]	31
c1ccc(CNc2ccnc3c(-c4ccc(N5CCOCC5)cc4)cnn23)nc1 [Compound 13]	55
Clc1cccc(Nc2ccn3ncc(-c4ccncc4)c3n2)c1 [Compound 14]	13

System: NCI ADR RES Breast adenocarcinoma (pleural effusion)
Assay: as above
Assay type: cell-based
Details: Homo sapiens, compound at 10 μM, 72 h, read-out: percentage kill, NCI ADR RES
Procedure: as §9, §4, §5, §7

Structure (SMILES)	inhibition at 10 µM [%]
c1ccc(CNc2ccnc3c(-c4cccc5cccnc45)cnn23)nc1 [Compound 8]	85
Fc1ccc(-c2cnn3c(NCc4ccccn4)ccnc23)cc1Cl [Compound 11]	18
ClCc1ccccc1-c1cnn2c(NCc3cccs3)ccnc12 [Compound 12]	-12
c1ccc(CNc2ccnc3c(-c4ccc(N5CCOCC5)cc4)cnn23)nc1 [Compound 13]	28
Clc1cccc(Nc2ccn3ncc(-c4ccncc4)c3n2)c1 [Compound 14]	2

System: SW480 Colon adenocarcinoma (Dukes' type B)
Assay: as above
Assay type: cell-based
Details: Homo sapiens, compound at 10 μM, 72 h, read-out: percentage kill, SW480
Procedure: as §9, §4, §5, §7

Structure (SMILES)	inhibition at 10 µM [%]
c1ccc(CNc2ccnc3c(-c4cccc5cccnc45)cnn23)nc1 [Compound 8]	71
Fc1ccc(-c2cnn3c(NCc4ccccn4)ccnc23)cc1Cl [Compound 11]	-6
ClCc1ccccc1-c1cnn2c(NCc3cccs3)ccnc12 [Compound 12]	-22
c1ccc(CNc2ccnc3c(-c4ccc(N5CCOCC5)cc4)cnn23)nc1 [Compound 13]	-4
Clc1cccc(Nc2ccn3ncc(-c4ccncc4)c3n2)c1 [Compound 14]	10

System: HT29 Colorectal adenocarcinoma
Assay: as above
Assay type: cell-based
Details: Homo sapiens, HT-29; compound at 10 μM, 72 h; read-out: percentage kill, HT29
Procedure: as §9, §4, §5, §7

Structure (SMILES)	inhibition at 10 µM [%]
c1ccc(CNc2ccnc3c(-c4cccc5cccnc45)cnn23)nc1 [Compound 8]	78
Fc1ccc(-c2cnn3c(NCc4ccccn4)ccnc23)cc1Cl [Compound 11]	25
ClCc1ccccc1-c1cnn2c(NCc3cccs3)ccnc12 [Compound 12]	-5
c1ccc(CNc2ccnc3c(-c4ccc(N5CCOCC5)cc4)cnn23)nc1 [Compound 13]	-13
Clc1cccc(Nc2ccn3ncc(-c4ccncc4)c3n2)c1 [Compound 14]	51

System: MCF7 Mammary gland adenocarcinoma
Assay: as above
Assay type: cell-based
Details: Homo sapiens, compound at 10 μM, 72 h, read-out: percentage kill, MCF7
Procedure: as §9, §4, §5, §7

Structure (SMILES)	inhibition at 10 µM [%]
c1ccc(CNc2ccnc3c(-c4cccc5cccnc45)cnn23)nc1 [Compound 8]	83
Fc1ccc(-c2cnn3c(NCc4ccccn4)ccnc23)cc1Cl [Compound 11]	22
ClCc1ccccc1-c1cnn2c(NCc3cccs3)ccnc12 [Compound 12]	36
c1ccc(CNc2ccnc3c(-c4ccc(N5CCOCC5)cc4)cnn23)nc1 [Compound 13]	56
Clc1cccc(Nc2ccn3ncc(-c4ccncc4)c3n2)c1 [Compound 14]	26

System: FRAT2-C9M-TF1 cells
Assay: EC50 titration, Alamar Blue, suspension cells
Assay type: cell-based, Human
Details: Homo sapiens; 72 h, Alamar Blue; absence of growth factor
Procedure: as §1, §2, §3

Structure (SMILES)	EC50 [µM]
c1ccc(CNc2ccnc3c(-c4cccc5cccnc45)cnn23)nc1 [Compound 8]	5.62

Same assay, conditions: Homo sapiens; 72 h, Alamar Blue; presence of growth factor

Structure (SMILES)	EC50 [µM]
c1ccc(CNc2ccnc3c(-c4cccc5cccnc45)cnn23)nc1 [Compound 8]	5.75
